Source: patent EP4141110A1 (priority 2020, dated 2021)
“And” between values parts separate entries of the source, which are not always exact repeats. Identical values can stand only once.

Tests used:
[1] = tested on: PC3 line; format: cell-based
[2] = tested on: mice; conditions: mouse, in vivo
[3] = tested on: cell cultures

O=C([O-])[O-].O=C([O-])[O-].O=C([O-])[O-].[Tl+3].[Tl+3] [Tl2(CO3)3]
% of PC3 death in the mixture with iRGD + 6APA ligand [1]: 95% and 92% and 89%
DCL [2]: 19 µg/dL
Therapeutic ratio × 10^-7 [2]: 14.6 × 10^-7
dCL/ daggl [2]: 0.5
daggl [3]: 9 pg/dL

O=S(=O)(O)[S-].O=S(=O)(O)[S-].[Au].[Na+].[Na+].[Na+] [AuH2Na3O6S4, aurothiosulfate]
% of PC3 death in the mixture with iRGD + 6APA ligand [1]: 75% and 70% and 56%
Therapeutic ratio × 10^-7 [2]: 50 × 10^-7

[Na+].[O]=[V](=[O])[O-] [NaVO3]
% of PC3 death in the mixture with iRGD + 6APA ligand [1]: 70% and 55% and 40%
DCL [2]: 2.0 µg/dL
Therapeutic ratio × 10^-7 [2]: 67 × 10^-7
dCL/ daggl [2]: 1
daggl [3]: 1 pg/dL

O=[N+]([O-])[O-].O=[N+]([O-])[O-].O=[N+]([O-])[O-].[Ga+3] [Ga(NO3)3, gallium trinitrate]
% of PC3 death in the mixture with iRGD + 6APA ligand [1]: 90% and 82% and 75%
DCL [2]: 35 µg/dL
Therapeutic ratio × 10^-7 [2]: 9.2 × 10^-7
dCL/ daggl [2]: 8
daggl [3]: 20 pg/dL

[Cl][Pt-2]([Cl])([Cl])([Cl])([Cl])[Cl].[NH4+].[NH4+] [(NH4)2[PtCl6], ammonium hexachloroplatinate (IV)]
% of PC3 death in the mixture with iRGD + 6APA ligand [1]: 95% and 92% and 90%
Therapeutic ratio × 10^-7 [2]: 5 × 10^-7

O=C([O-])[O-].[Tl+].[Tl+] [Tl2CO3]
% of PC3 death in the mixture with iRGD + 6APA ligand [1]: 95% and 85% and 80%
DCL [2]: 21 µg/dL
Therapeutic ratio × 10^-7 [2]: 13.1 × 10^-7
dCL/ daggl [2]: 2
daggl [3]: 12 pg/dL

O=[N+]([O-])[O-].[Ag+] [AgNO3]
% of PC3 death in the mixture with iRGD + 6APA ligand [1]: 80% and 75% and 65%
Therapeutic ratio × 10^-7 [2]: 180 × 10^-7

O=[N+]([O-])[O-].O=[N+]([O-])[O-].[Cu+2] [Cu(NO3)2]
% of PC3 death in the mixture with iRGD + 6APA ligand [1]: 85% and 82% and 65%
Therapeutic ratio × 10^-7 [2]: 25 × 10^-7

O=[N+]([O-])[O-].O=[N+]([O-])[O-].[Zn+2] [Zn(NO3)2]
Therapeutic ratio × 10^-7 [2]: 50 × 10^-7

N.N.[Cl][Pt][Cl] [cisplatin (cis-Pt(N H3)2 Cl2), cisplatin (cis-dichlorodiamminplatin) (II), reference compound]
% of PC3 death in the mixture with iRGD + 6APA ligand [1]: 95% and 88% and 82%
DCL [2]: 3.5 µg/dL
Therapeutic ratio × 10^-7 [2]: 7 × 10^-7
dCL/ daggl [2]: 5
daggl [3]: 2 pg/dL
